In the test the target is T1, UGT79B31 (Petunia x hybrida, UniProt A0A2Z6FLE1).
T1 construct: full-length, cloned from petunia pollen cDNA; His/ProS2 fusion (pColdProS2) in E. coli BL21star (DE3), tag cleaved with HRV3C protease; partially purified
Kind of test: end-product inhibition, UPLC/PDA/QTOF/MS glucosyltransferase assay. Conditions: read-out: Relative activity (%). The test is classed as biochemical. From the text:
end-product inhibition, UPLC/PDA/QTOF/MS glucosyltransferase assay on UGT79B31

T1 sequence (A0A2Z6FLE1 1-455): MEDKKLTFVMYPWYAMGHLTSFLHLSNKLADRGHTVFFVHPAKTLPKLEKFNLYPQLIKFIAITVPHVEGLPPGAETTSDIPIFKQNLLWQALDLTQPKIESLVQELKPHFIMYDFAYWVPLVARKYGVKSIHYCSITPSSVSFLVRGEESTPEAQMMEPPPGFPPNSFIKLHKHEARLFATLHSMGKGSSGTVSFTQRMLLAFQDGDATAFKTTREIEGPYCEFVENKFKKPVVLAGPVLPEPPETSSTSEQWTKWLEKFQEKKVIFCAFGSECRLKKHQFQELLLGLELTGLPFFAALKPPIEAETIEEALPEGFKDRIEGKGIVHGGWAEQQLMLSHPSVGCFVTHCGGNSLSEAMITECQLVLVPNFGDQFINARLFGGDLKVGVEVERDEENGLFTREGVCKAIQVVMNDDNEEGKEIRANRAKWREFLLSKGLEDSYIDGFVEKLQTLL

Consider `O=c1ccn([C@@H]2O[C@H](COP(=O)(O)OP(=O)(O)O)[C@@H](O)[C@H]2O)c(=O)[nH]1` [UDP], for which the activity at 1000 µM was 4.2 ± 0.1%.
